Key:
[1] = system: human breast MCF-7 cancer cell line; experiment: In vitro cytotoxic screening (MTT assay), MCF-7; type: cell-based; settings: for Percentage cytotoxicity on MCF-7: average ± standard deviation
Procedure: (§1) Using human breast MCF-7, colorectal HCT-116, and prostate PC-3 cancer cell lines, preliminary antiproliferative effectiveness of cyclopenta[4,5]thieno[2,3-d][1,2,4]triazolo[1,5-a]pyrimidin-9(6H)-ones 4–16 was established in vitro through MTT assay at different concentrations (100, 50, 25 and 12.5 μM) (Figure 2).
(§2) The cell lines were obtained from Karolinska Center, Department of Oncology and Pathology, Karolinska Institute and Hospital, Stockholm, Sweden. as follows: human breast MCF-7, colorectal HCT-116 and prostate PC-3 cancer cell lines and human skin normal BJ-1 cell line. Exponentially, cells were cultured at a concentration of 10^4 cells/well for 24 h, afterwards fresh medium containing different concentrations of the tested samples was added. Serial two-fold dilution of the tested samples were added using a multichannel pipette. Moreover, all cells were cultivated at 37 °C, 5% CO2 and 95% humidity. Also, incubation of control cells occurred at 37 °C. However, after incubation for 24 h different concentrations of samples (100, 50, 25 and 12.5 µM) were added and the incubation was continued for 48 h, then crystal violet solution 1% was added to each well for 0.5 h to examine the presence of viable cells. After rinsing the wells using water until stain free, 30% glacial acetic acid was added to all wells with shaking the plates on a Microplate reader (TECAN, Inc.) to measure the absorbance at a wavelength of 490 nm. The cytotoxicity was estimated by IC50 in μM, which is the concentration that inhibits 50% of growth of cancer cells. […]
(§3) 1.1. In vitro cytotoxic screening
(§4) The cell lines were obtained from Karolinska Center, Department of Oncology and Pathology, Karolinska Institute and Hospital, Stockholm, Sweden. as follows: human breast MCF-7, colorectal HCT-116 and prostate PC-3 cancer cell lines and human skin normal BJ-1 cell line. Exponentially, cells were placed in 10^4 cells/ well for 24 h, and then add fresh medium which containing different concentration of the tested sample. Serial two-fold dilution of the tested sample were added using a multichannel pipette. Moreover, all cells were cultivated at 37 °C, 5% CO2 and 95% humidity. Also, incubation of control cells occurred at 37 °C. However, after incubation for 24 h different concentrations of sample (100, 50, 25 and 12.5 µM) were added and continued the incubation for 48 h, then, add the crystal violet solution 1% to each well for 0.5 h to examine viable cells. Rinse the wells using water until no stain. After that, add 30% glacial acetic acid to all wells with shaking plates on Microplate reader (TECAN, Inc.) to measure the absorbance, using a test wavelength of 490 nm. Besides, compare the treated samples with the control cell. The cytotoxicity was estimated by IC50 in (μ M), the concentration that inhibits 50% of growth of cancer cell. […]
(§5) The molecular docking simulation of the promising in vitro screened cyclopenta[4,5]thieno[2,3-d][1,2,4]triazolo[1,5-a]pyrimidin-9(6H)-ones 10b and 10e against EGFR and PI3K was done using the Molecular Operating Environment software (MOE-Dock) version 2014.0901. The co-crystallized structures of EGFR and PI3K kinases complexed with their native ligands, erlotinib and quinolone LXX, were downloaded from the protein data bank (PDB codes: 1M17 and 3L54, respectively). All minimizations were performed using MOE until an RMSD gradient of 0.05 kcal∙mol−1Å−1 with MMFF94x force field and the partial charges were automatically calculated. Preparation of the enzyme structures was done for molecular docking using Protonate 3D protocol with the default options in MOE. London dG scoring function and Triangle Matcher placement method were used in the docking protocol. Initially, the original ligands were re-docked into the active binding site of EGFR and PI3K kinases to assess the root-mean-square deviation values. Then, the docking studies of the newly targeted […]

[2] = system: human prostate PC-3 cancer cell line; experiment: In vitro cytotoxic screening (MTT assay), PC-3; type: cell-based; settings: average ± standard deviation
Procedure: as §1, §2, §3, §4, §5

[3] = system: human colorectal HCT-116 cancer cell line; experiment: In vitro cytotoxic screening (MTT assay), HCT-116; type: cell-based; settings: average ± standard deviation
Procedure: as §1, §2, §3, §4, §5

| melting point | Structure (SMILES) | Percentage cytotoxicity on MCF-7 ([1]; 12.5 µM) | Percentage cytotoxicity on MCF-7 ([1]; 25 µM) | Percentage cytotoxicity on MCF-7 ([1]; 50 µM) | Percentage cytotoxicity on MCF-7 ([1]; 100 µM) | Percentage cytotoxicity on PC-3 ([2]; 12.5 µM) | Percentage cytotoxicity on PC-3 ([2]; 25 µM) | Percentage cytotoxicity on PC-3 ([2]; 50 µM) | Percentage cytotoxicity on PC-3 ([2]; 100 µM) | Percentage cytotoxicity on HCT-116 ([3]; 12.5 µM) | Percentage cytotoxicity on HCT-116 ([3]; 25 µM) | Percentage cytotoxicity on HCT-116 ([3]; 50 µM) | Percentage cytotoxicity on HCT-116 ([3]; 100 µM) | IC50 ([1]; Homo sapiens, MCF7, MCF-7, 48 h incubation, mean of three values, read-out: IC50 (Mean ± SD) MCF-7) |
| --- | --- | --- | --- | --- | --- | --- | --- | --- | --- | --- | --- | --- | --- | --- |
| 220 °C | O=c1c2c3c(sc2nc2[nH]c(-c4ccc([N+](=O)[O-])cc4)nn12)CCC3 [Compound 10c, 2-(4-Nitrophenyl)-3,6,7,8-tetrahydro-9H-cyclopenta[4,5]thieno[2,3-d][1,2,4]triazolo[1,5-a]pyrimidin-9-one] | 8.18±1.01% | 24.04±2.59% | 25.97±1.28% | 33.62±2.13% | 48.3±2.0% | 53.4±1.2% | 54.8±1.6% | 54.7±2.8% | 20.2±2.9% | 38.2±0.9% | 39.4±0.9% | 40.4±2.4% |  |
| 180 to 182 °C | COc1ccc(-c2nn3c(=O)c4c5c(sc4nc3[nH]2)CCC5)cc1 [Compound 10d, 2-(4-Methoxyphenyl)-7,8-dihydro-3H-cyclopenta[4,5]thieno[2,3-d][1,2,4]triazolo[1,5-a]pyrimidin-9(6H)-one] | 12.7±2.1% | 35.1±5.9% | 47.3±8.5% | 53.1±6.1% | 9.1±6.3% | 21.6±0.06% | 26.9±1.2% | 36.4±3.1% | 0.0±0.005% | 0.0±0.005% | 0.0±0.005% | 14.3±4.3% |  |
| > 300 °C | CC(=O)OC[C@@H](OC(C)=O)[C@@H](OC(C)=O)[C@H](OC(C)=O)c1nc2nc3sc4c(c3c(=O)n2[nH]1)CCC4 [Compound 12d, (1R,2S,3R)-1-(9-oxo-1,7,8,9-tetrahydro-6H-cyclopenta[4,5]thieno[2,3-d][1,2,4]triazolo[1,5-a]pyrimidin-2-yl)butane-1,2,3,4-tetrayl tetraacetate] | 0.0±0.005% | 0.0±0.005% | 0.0±0.005% | 26.9±4.8% | 0.0±0.005% | 0.0±0.005% | 0.0±0.005% | 14.1±6.2% | 0.0±0.005% | 0.0±0.005% | 0.0±0.005% | 9.5±1.2% |  |
| > 300 °C | CC(=O)OC[C@@H](OC(C)=O)[C@@H](OC(C)=O)[C@H](OC(C)=O)[C@@H](OC(C)=O)c1nc2nc3sc4c(c3c(=O)n2[nH]1)CCC4 [Compound 12a, (1S,2R,3R,4R)-1-(9-oxo-1,7,8,9-tetrahydro-6H-cyclopenta[4,5]thieno[2,3-d][1,2,4]triazolo[1,5-a]pyrimidin-2-yl)pentane-1,2,3,4,5-pentayl pentaacetate] |  |  |  |  |  |  |  |  |  |  |  |  |  |

More lines, now with the values behind:

| Structure (SMILES) | melting point | Percentage cytotoxicity on MCF-7 ([1]; 12.5 µM) | Percentage cytotoxicity on MCF-7 ([1]; 25 µM) | Percentage cytotoxicity on MCF-7 ([1]; 50 µM) | Percentage cytotoxicity on MCF-7 ([1]; 100 µM) | Percentage cytotoxicity on PC-3 ([2]; 12.5 µM) | Percentage cytotoxicity on PC-3 ([2]; 25 µM) | Percentage cytotoxicity on PC-3 ([2]; 50 µM) | Percentage cytotoxicity on PC-3 ([2]; 100 µM) | Percentage cytotoxicity on HCT-116 ([3]; 12.5 µM) | Percentage cytotoxicity on HCT-116 ([3]; 25 µM) | Percentage cytotoxicity on HCT-116 ([3]; 50 µM) | Percentage cytotoxicity on HCT-116 ([3]; 100 µM) | IC50 ([1]; Homo sapiens, MCF7, MCF-7, 48 h incubation, mean of three values, read-out: IC50 (Mean ± SD) MCF-7) |
| --- | --- | --- | --- | --- | --- | --- | --- | --- | --- | --- | --- | --- | --- | --- |
| N#CCc1nn2c(=O)c3c4c(sc3nc2[nH]1)CCC4 [Compound 7, 2-(9-Oxo-6,7,8,9-tetrahydro-3H-cyclopenta[4,5]thieno[2,3-d][1,2,4]triazolo[1,5-a]pyrimidin-2-yl)acetonitrile] | > 300 °C |  |  |  |  |  |  |  |  |  |  |  |  |  |
| CC(=O)C/C(C)=N/n1c(N)nc2sc3c(c2c1=O)CCC3 [Compound 8, (E)-2-Amino-3-((4-oxopentan-2-ylidene)amino)-3,5,6,7-tetrahydro-4H-cyclopenta[4,5]thieno[2,3-d]pyrimidin-4-one] | > 300 °C | 30.1±4.1% | 31.9±3.1% | 40.9±7.8% | 45.7±5.9% | 0.0±0.005% | 0.0±0.005% | 0.0±0.005% | 0.0±0.005% | 0.0±0.005% | 0.0±0.005% | 0.0±0.005% | 0.0±0.005% |  |
| CCOC(=O)Cc1nn2c(=O)c3c4c(sc3nc2[nH]1)CCC4 [Compound 6, Ethyl 2-(9-oxo-6,7,8,9-tetrahydro-3H-cyclopenta[4,5]thieno[2,3-d][1,2,4]triazolo[1,5-a]-pyrimidin-2-yl)acetate] | > 300 °C | 0.0±0.005% | 0.0±0.005% | 0.0±0.005% | 24±2.5% | 0.0±0.005% | 0.0±0.005% | 0.0±0.005% | 15.1±4.1% | 0.0±0.005% | 0.0±0.005% | 0.0±0.005% | 0.0±0.005% |  |
| O=c1c2c3c(sc2nc2[nH]c(=S)[nH]n12)CCC3 [Compound 9, 2-Thioxo-2,3,7,8-tetrahydro-1H-cyclopenta[4,5]thieno[2,3-d][1,2,4]triazolo[1,5-a]pyrimidin-9(6H)-one] | > 300 °C | 0.0±0.005% | 28.4±2.6% | 32.7±2.4% | 62.5±7.6% | 3.7±1.3% | 6.3±0.9% | 7.8±1.3% | 19.3±3.5% | 0.0±0.005% | 0.0±0.005% | 0.0±0.005% | 0.0±0.005% | 71.8 ± 1.05 µM |
| O=c1c2c3c(sc2nc2[nH]cnn12)CCC3 [Compound 4, 7,8-Dihydro-3H-cyclopenta[4,5]thieno[2,3-d][1,2,4]triazolo[1,5-a]pyrimidin-9(6H)-one] | > 300 °C | 31.5±5.7% | 23.6±3.2% | 35.5±4.4% | 34.8±4.1% | 0.0±0.005% | 0.0±0.005% | 0.0±0.005% | 11.3±3.7% | 0.0±0.005% | 0.0±0.005% | 0.0±0.005% | 9.1±2.0% |  |
| Cc1nn2c(=O)c3c4c(sc3nc2[nH]1)CCC4 [Compound 5, 2-Methyl-7,8-dihydro-3H-cyclopenta[4,5]thieno[2,3-d][1,2,4]triazolo[1,5-a]pyrimidin-9(6H)-one] | 93 to 95 °C | 0.0±0.005% | 0.0±0.005% | 0.0±0.005% | 18.9±10% | 0.0±0.005% | 0.0±0.005% | 0.0±0.005% | 0.0±0.005% | 0.0±0.005% | 0.0±0.005% | 0.0±0.005% | 0.0±0.005% |  |

— PMC10934261, “Designing Potent Anti-Cancer Agents: Synthesis and Molecular Docking Studies of Thieno[2,3-d][1,2,4]triazolo[1,5-a]pyrimidine Derivatives” (Molecules, 2024)
